The values that follow come from ChEMBL document CHEMBL4184266, “Bacicyclin, a new antibacterial cyclic hexapeptide from Bacillus sp. strain BC028 isolated from Mytilus edulis” (Bioorg Med Chem Lett, 2018).

Broadly, the MIC is the smallest concentration in the dilution series that meets the test's criterion for growth inhibition. A word on the CC50: it is the concentration that lowers cell viability or growth by half. A higher CC50 goes with lower toxicity to the cells.

One data set concerns Staphylococcus aureus. The data set is described as follows: Antibacterial activity against Staphylococcus aureus NCTC 8325 assessed as inhibition of bacterial growth incubated for 18 hrs by […]. Type of data set: functional. The note with it: NCTC 8325, 18 h.
The next data set concerns Enterococcus faecalis. The data set is described as follows: Antibacterial activity against Enterococcus faecalis JH212 assessed as inhibition of bacterial growth incubated for 18 hrs by […]. Type of data set: functional. The note with it: JH212, 18 h.
Another data set deals with Enterococcus faecium. The data set is described as follows: Antibacterial activity against Enterococcus faecium 6413 assessed as inhibition of bacterial growth incubated for 18 hrs by […]. Type of data set: functional, organism-based. (In general: An ELISA detects its analyte on a solid surface through an enzyme-linked reagent.)
In a further data set the test system is Pseudomonas aeruginosa. Put plainly: Antibacterial activity against Pseudomonas aeruginosa isolate number 3 assessed as inhibition of bacterial growth incubated for 18 hrs by […]. The class given is functional, organism-based.
Another data set deals with Escherichia coli. The data set is described as follows: Antibacterial activity against Escherichia coli 536 assessed as inhibition of bacterial growth incubated for 18 hrs by […]. The class given is functional, organism-based.
The subject of data set [1] is Staphylococcus epidermidis. Put plainly: Antibacterial activity against Staphylococcus epidermidis RP62A assessed as inhibition of bacterial growth incubated for 18 hrs by […]. Type of data set: functional, organism-based.
The nature of data set [2]: Cytotoxicity against mouse J774.1 cells incubated for 24 hrs and measured 48 and 72 hrs post dye addition by Alamar blue dye based assay. The class given is cell-based.

In brackets after ≈: the same amount, converted by molar mass. Activity calls are given as the source filed them.

Consider `CN[C@@H]1[C@H](O[C@H]2[C@H](O[C@H]3[C@H](O)[C@@H](O)[C@H](N=C(N)N)[C@@H](O)[C@@H]3N=C(N)N)O[C@@H](C)[C@]2(O)C=O)O[C@@H](CO)[C@H](O)[C@H]1O` [STREPTOMYCIN], for which the minimum inhibitory concentration (MIC) with Staphylococcus aureus came to 2.09 µM (≈ 1.22 µg/mL); in the data set on Enterococcus faecalis, 5.24 µM (≈ 3.05 µg/mL).
For the molecule `CC[C@H](C)[C@@H]1NC(=O)[C@@H](C)NC(=O)[C@@H](Cc2ccccc2)NC(=O)CNC(=O)[C@H](CC(C)C)NC(=O)[C@H](C(C)C)NC1=O`, the “growth inhibition (GI)” value (in the data set with Enterococcus faecium; in the data set on Pseudomonas aeruginosa; in the data set with Escherichia coli; in data set [1]) was “inactive” in each case.
Turning to `CC[C@H](C)[C@@H]1NC(=O)[C@H](C(C)C)NC(=O)[C@H](CC(C)C)NC(=O)CNC(=O)[C@@H](Cc2ccccc2)NC(=O)[C@@H](C)NC1=O` [listing 1 of 2 here], the MIC with Staphylococcus aureus came to 12 µM (≈ 7.21 µg/mL); in the data set with Enterococcus faecalis, 8 µM (≈ 4.81 µg/mL).
In turn, `CC[C@H](C)[C@@H]1NC(=O)[C@H](C(C)C)NC(=O)[C@H](CC(C)C)NC(=O)CNC(=O)[C@@H](Cc2ccccc2)NC(=O)[C@@H](C)NC1=O` [listing 2 of 2 here] registered a CC50 at 24 h in data set [2] of over 200 µM.
